This assay concerns S. aureus USA300 biofilms in murine wounds. The assay can be described thus: In vivo biofilm assay, murine wound model. Also noted: species or system BALB/c mice. To be noted: topical, 24 h. The procedure: Preparation of Inoculum. An overnight culture of S. aureus USA300 LAC was inoculated in fresh MHB and incubated at 37° C. for 3 hours. The suspension was centrifuged at 3000 g for 5 minutes, and the supernatant was discarded. The bacteria were resuspended in 1×PBS, and the OD600 was adjusted to 0.6 (˜3×10^7 CFU/mL).
Experimental Animals. An alternative murine wound model has been established which is slightly different from other studies (Su, et al. (2019) Mol. Pharmaceutics 16:2011-2020; Su, et al. (2023) J. Controlled Release 356:131-141). Female BALB/c mice (3-4 weeks, ˜20 g) were fed with standardized food (Teklad Laboratory diet for rodents) and water (Hydropac Alternative Watering System) ad libitum. Mice were kept in ventilated cages (IVCs) at a temperature of 20-24° C., a humidity of 50-60%, 60 air exchanges per hour, and a 12/12 hour light/dark cycle. All materials, including IVCs, lids, feeders, bottles, bedding, and water, were autoclaved before use. All animal manipulations were performed in a class II laminar flow biological safety cabinet. The study was approved by the Institutional Animal Care and Use Committee (IACUC) of UNMC (Protocol no. 22-015-08-FC).
In Vivo Biofilm Assay. Mice were anesthetized by intraperitoneal injection of ketamine-xylazine (100 mg/kg+10 mg/kg). […] Finally, the plates were incubated at 37° C. for 20 hours and the CFUs were counted. […]

Here are results for two compounds from patent US20250101062A1, “ANTIMICROBIAL PEPTIDES” (Board of Regents of the University of Nebraska, priority 2023, published 2025).

Where no end group is shown, it is not given here.

For `CCCCCCCCCC(=O)N[C@@H](Cc1c[nH]c2ccccc12)C(=O)N[C@H](CC(N)=O)C(=O)N[C@@H](CC(=O)O)C(=O)N[C@@H]1C(=O)NCC(=O)N[C@@H](CCCN)C(=O)N[C@@H](CC(=O)O)C(=O)N[C@H](C)C(=O)N[C@@H](CC(=O)O)C(=O)NCC(=O)N[C@H](CO)C(=O)N[C@@H]([C@H](C)CC(=O)O)C(=O)N[C@@H](CC(=O)c2ccccc2N)C(=O)O[C@@H]1C` [Daptomycin], the “reduction of bacterial burden” value (10 mg/kg per wound) is recorded as roughly 3 logs.
RRWWRWWR-NH2 [W543]: the “bacterial CFU decrease” value (4.4 mg/kg per wound) turned out to be 2 log.
